Results from US9422238B2, “ICMT inhibitors” (National University of Singapore, priority 2012, dated 2016).
Entries after “also recorded” stand apart in the source; their conditions may differ. Where two headings read alike, the source gives them in different places.

Key:
[1] = system: human pancreatic cancer MIA PACA II cells; assay: Cell viability (MTS); type: cell-based; details: MIA PaCa-2, Table 6, N = 2
Procedure: Human hepatocellular carcinoma HepG2 and human pancreatic cancer MIA PACA II cells were obtained from ATCC (Rockville, Md.). They were grown in DMEM (high glucose, Invitrogen) supplemented with 10% FBS, 50 μg/mL penicillin and 50 μg/mL streptomycin, 37° C., 5% CO2 until they reached 80-90% confluency, after which they were subcultured. Passage numbers were kept within 7-14 passages for both cell types.

[2] = In vitro stability in rat liver microsomes; type: in vitro ADME; details: for Half-life (min) / Intrinsic Clearance (μL/min/mg): NADPH; for half-life / microsomal CLint: male, pooled rat liver microsomes, pH 7.4, NADPH; for microsomal CLint: read-out: Intrinsic Clearance
Procedure: The mixture was preincubated for 5 min at 37° C. in a shaking water bath, after which the reaction was initiated by adding […] of 10 mM NADPH (freshly prepared in phosphate buffer) to give a final concentration of 1 mM NADPH in the mixture. Aliquots of 50 μL were withdrawn immediately on addition of NADPH (time 0) and subsequently at 5, 15, 30 and 45 min. […] The mixture was then centrifuged at 10,000×g to remove the protein and the content of the test compound in the supernatant was subsequently measured by LCMS.
For each test compound, the metabolic stability of a positive control, midazolam (5 μM) which is a known cytochrome P450 substrate, was concurrently determined to evaluate the adequacy of the experimental conditions. The stability of the test compound to microsomal degradation in the absence of NADPH was also monitored.
Separations were made on a C18 column (Luna 3u C18(2) 100A column (2.0×50 mm, i.d., 3 μM, Phenomenex, Aschaffenburg, Germany or Eclipse Plus C18 column, 4.6×150 mm, i.d., 3.5 μM Agilent Technologies, Palo Alto, Calif., USA) with a security guard cartridge (3.0×4 mm, Agilent Technologies, Palo Alto, Calif., USA). Mobile phase was 0.1% formic acid in acetonitrile-water as mobile phase. Flow rate was set at 0.2 or 0.6 mL/min and the column temperature was at 30° or 40° C. 2 or 5 μL full loop sample injection was used.
Data processing was performed with Analyst™ 1.4.2 software package (Applied Biosystems, MA., USA). The corresponding MRM transition of this candidate was selected and used for peak configuration in Analyst 1.4.2 for semi-quantitation. The peak areas of test compound at different time points were expressed as a % of the peak area of test compound at time=0 min. The resulting % of intact (or remaining) test compound (average of 3 measurements with SD) was plotted against incubation time drug (Figure xx). In vitro half life (T1/2, min) was calculated from Equation 3 (Lu C, Li P, Gallegos R, Uttamsingh V, Xia C Q, Miwa G T, et al. Comparison of intrinsic clearance in liver microsomes and hepatocytes from rats and humans: evaluation of free fraction and uptake in hepatocytes. Drug Metab Dispos 2006; 34: 1600-5). T1/2=0.693/k(min) Equation 3: Where k is the slope of the plot Estimated in vitro clearance was determined from Equation 4: CLint, in vitro=V×0.693/T½ Equation 4: where V (μL/mg)=Volume of incubation/amount of microsomal protein in the incubation (μL/mg) Ames Test for Mutagenicity

[3] = system: PC3 cells; assay: In vitro scratch assay (cell migration); type: cell-based, human; details: PC3, 24 h
Procedure: PC3 cells were seeded at 100 000 cells per well in a 6-well plate in media (DMEM, high glucose, 10% FBS, 50 μg/mL penicillin, 50 μg/mL streptomycin) and incubated (37° C., 5% CO2) for 36 hours until confluent. The cell monolayer was scraped in a straight line with a 1 mL pipette tip to create a “scratch” which was also marked at the bottom of the plate with a marker pen. The media was removed from the well which was then washed with PBS. Test compound in 2 mL DMEM (high glucose, 5% FBS) was added to each well (DMSO concentration of 0.05% v/v per well) and the plates were incubated at 37° C., 5% CO2. Control wells with PC3 monolayers were similarly treated. Scratches of approximately the same size were made on control and treated wells. Photographs of the scratched surfaces in wells were taken with a microscope fitted with a camera at the start of incubation and after 24 h. Magnification was kept constant at 40× for all acquired images. These were further analyzed by downloading the images into a Powerpoint® file and measuring (on-screen) the distances between one side of the scratch and the other. For each “scratch”, four or five distances were measured across the length of the scratch in the initial (0 h) image and these same distances were monitored after 24 h. Each compound was tested at 3 concentrations with 3 repeats made for each concentration.

[4] = system: HepG2 xenografts; assay: In vivo activity on xenograft bearing mice; details: for deaths during the treatment period: 8 mice
Procedure: HepG2 cells were grown in DMEM and 10% FBS until near confluence and then harvested after trypsinization. […] The vehicle was ethanol-PEG400-dextrose solution as described in 5.2.1. The animals were monitored daily for changes in their general appearance, weight and tumor volume. Tumor volume was calculated using the formula: […]. Length (L) and width (W) of the tumor were measured with a digital vernier caliper and reported to 2 decimal places. The shorter of the 2 distances was taken as width. The mice were monitored—for 25-days after which they were euthanized with CO2, the tumors removed by dissection and weighed.

[5] = system: Human lung fibroblast IMR90 cells; assay: Cell viability on non-malignant cells (MTS, 72 h); type: cell-based
Procedure: Cell viability was determined from the expression:
The plot was constrained to ≧0 and ≦100%.
Human lung fibroblast IMR90 cells were purchased from ATCC (Rockville, Md.) and grown in Eagle's Minimal Essential Media (EMEM, Sigma Aldrich, Singapore) at 37° C., 5% CO2. […] Seeding density was maintained at 4000 cells per well.

[6] = IMR-90, further testing, 72 h, mean (SD), read-out: IC50 IMR90

Row | SMILES | IC50 [1] | Half-life (min) [2] | Intrinsic Clearance (μL/min/mg) [2] | half-life [2] | microsomal CLint [2] | gap closure in scratch assay [3] | body weight change ([4]; xenograft-bearing mice, 25 days) | IC50 ([5]; IMR-90, Table 6, mean (SD), read-out: IC50 (μM) IMR90) | IC50 [5, 6] | deaths during the treatment period ([4]; 15 mg/kg IP daily, 25 days) | deaths during the treatment period ([4]; 30 mg/kg IP daily, 25 days) | reduction in relative tumor volume ([4]; 15 and 30 mg/kg IP daily, p<0.05 vs control) | weight of excised tumors vs control ([4]; after 25 days)
1 | CCCCCCCCn1cc(CC(N)=O)c2cc(-c3cccc(C)c3)ccc21 [Cysmethynil, 2-[5-(3-methylphenyl)-1-octyl-1H-indolo-3-yl]acetamide, reference compound] | 22.5 µM | 44.8 (8.0) min | 53.6 (9.0) μL/min/mg | 44.8 min | 53.6 µL/min/mg | the gap closed to some degree in the presence of 17.5 and 20 μM cysmethynil after 24 h, but remained open in cells treated with 22.5 μM cysmethynil | Weight loss was observed up to Day 11 | – | – | – | – | – | –
2 | CCCCCCCCn1cc(CN(CC)CC)c2cc(-c3cnc(N)nc3)ccc21 [Compound 8-12, 5-(3-Diethylaminomethyl-1-octyl-1H-indol-5-yl)-pyrimidin-2-ylamine] | 1.6 µM | 11.3 (0.4) min | 204.0 (9.0) μL/min/mg | 11.3 min | 204 µL/min/mg | the gap remained “open” at 2 and 2.5 μM but closed to some extent at a lower concentration of 1.5 μM | – | 2.65 µM | 2.65 µM | one animal died | Three deaths | Significant reduction in tumor volume was evident from Day 5 onwards for animals receiving 30 mg/kg and Day 7 onwards for animals receiving 15 mg/kg; also recorded: Reduction in tumor volume was significant from Day 5 and Day 7 onwards for animals dosed with 30 mg/kg and 15 mg/kg respectively | significant weight loss compared to control
3 | CCCCCCCCn1c2c(c3cc(-c4cnc(N)nc4)ccc31)CN(C)CC2 [Compound 305, 8-(2′-amino-pyrimidin-5′-yl)-2-methyl-5-n-octyl-1,2,3,4-tetrahydropyrido[4,3-b]indole] | – | – | – | 31.6 min | 76.6 µL/min/mg | – | – | – | 5.29 µM | – | – | – | –
